Measurements taken from patent publication US20230075856A1, “CYCLIC SULFAMIDE COMPOUNDS FOR TREATMENT OF HBV” (Assembly Biosciences, Inc., priority 2018, published 2023).
Where two headings read alike, the source gives them in different places.

System: HBV viral load production from HepAD38 cells
Experiment: Viral production from HepAD38 cells: viral load in supernatant by qPCR of the HBV core sequence
Type: cell-based
Settings: 5 days incubation, qPCR of supernatant HBV DNA vs DMSO control, read-out: viral load lowering EC50 (Activity)
Method in brief: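 HepAD38 cells seeded at 50,000/well in tetracycline-free medium with 2% FBS, treated with compounds (final top concentration 10 μM) for 5 days at 37 °C. Supernatant HBV DNA quantified by TaqMan qPCR of core sequence against HBV DNA standards, relative to DMSO controls; EC50 by four-parameter logistic fit.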

[1] = Hepatitis B virus, HePAD38, 120 h

| Structure (SMILES) | EC50 [1] [nM] | EC50 [nM] |
| --- | --- | --- |
| CN1CCC(Oc2ccc(-c3ncc(CNC(=O)C4CC(C(=O)Nc5ccc(F)c(Cl)c5)N(C)S(=O)(=O)N4)s3)cc2)CC1 (single isomer, unassigned) [Compound 979-ISOMER-A, N3-(3-chloro-4-fluoro-phenyl)-2-methyl-N5-[[2-[4-[(1-methyl-4-piperidyl)oxy]phenyl]thiazol-5-yl]methyl]-1,1-dioxo-1,2,6-thiadiazinane-3,5-dicarboxamide] | 100 to 10000 |  |
| CN1C(C(=O)Nc2ccc(F)c(Cl)c2)CC(C(=O)NC2CCN(c3ccnc(-c4cn(C)cn4)c3)CC2)NS1(=O)=O (stereo not drawn) [Compound 1052] | < 50 |  |
| C[C@@H](NC(=O)C1CC(C(=O)Nc2ccc(F)c(Cl)c2)N(C)S(=O)(=O)N1)c1ccccc1 (single isomer, unassigned) [Compound 719-ISOMER-B] |  | 100 to 10000 |
| COc1ccccc1-c1ncc(CNC(=O)C2CC(C(=O)Nc3ccc(F)c(Cl)c3)N(C)S(=O)(=O)N2)s1 (single isomer, unassigned) [Compound 987-ISOMER-B, N3-(3-chloro-4-fluoro-phenyl)-N5-[[2-(2-methoxyphenyl)thiazol-5-yl]methyl]-2-methyl-1,1-dioxo-1,2,6-thiadiazinane-3,5-dicarboxamide] |  | 100 to 10000 |
| Cc1cn(-c2ccc(F)cc2F)nc1CNC(=O)C1CC(C(=O)Nc2ccc(F)c(Cl)c2)N(C)S(=O)(=O)N1 (single isomer, unassigned) [1144-ISOMER-A, N3-(3-chloro-4-fluoro-phenyl)-N5-[[1-(2,4-difluorophenyl)-4-methyl-pyrazol-3-yl]methyl]-2-methyl-1,1-dioxo-1,2,6-thiadiazinane-3,5-dicarboxamide] | < 50 |  |
| Cc1ccnc(N2CCC(NC(=O)C3CC(C(=O)Nc4ccc(F)c(Cl)c4)N(C)S(=O)(=O)N3)CC2)c1 (stereo not drawn) [Compound 971] | < 50 |  |
| CN1C(C(=O)Nc2ccc(F)c(Cl)c2)CC(C(=O)NCc2cnc(-c3ccc(OCCCN4CCSCC4)cc3)s2)NS1(=O)=O (single isomer, unassigned) [Compound 925-ISOMER-B, N3-(3-chloro-4-fluoro-phenyl)-2-methyl-1,1-dioxo-N5-[[2-[4-(3-thiomorpholinopropoxy)phenyl]thiazol-5-yl]methyl]-1,2,6-thiadiazinane-3,5-dicarboxamide] |  | 100 to 10000 |
| Cc1cn(-c2ccccc2F)nc1CNC(=O)C1CC(C(=O)Nc2ccc(F)c(Cl)c2)N(C)S(=O)(=O)N1 (single isomer, unassigned) [1142-ISOMER-A, N3-(3-chloro-4-fluoro-phenyl)-N5-[[1-(2-fluorophenyl)-4-methyl-pyrazol-3-yl]methyl]-2-methyl-1,1-dioxo-1,2,6-thiadiazinane-3,5-dicarboxamide] | < 50 |  |
| CN(C)CCCCc1cnn(-c2ncc(CNC(=O)C3CC(C(=O)Nc4ccc(F)c(Cl)c4)N(C)S(=O)(=O)N3)s2)c1 (single isomer, unassigned) [1197-ISOMER-B, N3-(3-chloro-4-fluoro-phenyl)-N5-[[2-[4-[4-(dimethylamino)butyl]pyrazol-1-yl]thiazol-5-yl]methyl]-2-methyl-1,1-dioxo-1,2,6-thiadiazinane-3,5-dicarboxamide] |  | 50 to 100 |
| CN1C(C(=O)Nc2ccc(F)c(Cl)c2)CC(C(=O)NCc2csc(-c3ccc(OCCN4CCCCC4)cc3)n2)NS1(=O)=O (single isomer, unassigned) [Compound 957-ISOMER-A, N3-(3-chloro-4-fluoro-phenyl)-2-methyl-1,1-dioxo-N5-[[2-[4-[2-(1-piperidyl)ethoxy]phenyl]thiazol-4-yl]methyl]-1,2,6-thiadiazinane-3,5-dicarboxamide] | < 50 |  |
| CN1C(C(=O)Nc2ccc(F)c(Cl)c2)CC(C(=O)NC2CCN(c3ccnc(F)c3)CC2)NS1(=O)=O (single isomer, unassigned) [1040-ISOMER-A, N3-(3-chloro-4-fluoro-phenyl)-N5-[1-(2-fluoro-4-pyridyl)-4-piperidyl]-2-methyl-1,1-dioxo-1,2,6-thiadiazinane-3,5-dicarboxamide] | < 50 |  |
| COc1ccc(-c2ncc(CNC(=O)C3CC(C(=O)Nc4ccc(F)c(Cl)c4)N(C)S(=O)(=O)N3)s2)c(Cl)c1 (stereo not drawn) [Compound 988] | < 50 |  |
| Cc1cnc(CNC(=O)C2CC(C(=O)Nc3ccc(F)c(Cl)c3)N(C)S(=O)(=O)N2)s1 (single isomer, unassigned) [Compound 687-ISOMER-A, N3-(3-chloro-4-fluoro-phenyl)-2-methyl-N5-[(5-methylthiazol-2-yl)methyl]-1,1-dioxo-1,2,6-thiadiazinane-3,5-dicarboxamide] | 100 to 10000 |  |
| Cc1nc(-c2ccccc2Cl)sc1CNC(=O)C1CC(C(=O)Nc2ccc(F)c(Cl)c2)N(C)S(=O)(=O)N1 (single isomer, unassigned) [1015-ISOMER-B, N3-(3-Chloro-4-fluoro-phenyl)-N5-[[2-(2-chlorophenyl)-4-methyl-thiazol-5-yl]methyl]-2-methyl-1,1-dioxo-1,2,6-thiadiazinane-3,5-dicarboxamide] |  | 50 to 100 |
| CN1C(C(=O)Nc2ccc(F)c(Cl)c2)CC(C(=O)N[C@@H]2CCN(c3ccnc(Cl)c3)C2)NS1(=O)=O (stereo partly drawn) [Compound 1055-R] | < 50 |  |
| CN1C(C(=O)Nc2ccc(F)c(C#N)c2)CC(C(=O)NCc2nc3ccccc3s2)NS1(=O)=O (stereo not drawn) [Compound 866] | 100 to 10000 |  |
| CN1C(C(=O)Nc2ccc(F)c(Cl)c2)CC(C(=O)NCc2cnc(C(F)(F)F)s2)NS1(=O)=O (stereo not drawn) [Compound 498] | 100 to 10000 |  |

| Structure (SMILES) | EC50 [1] [nM] | EC50 [nM] |
| --- | --- | --- |
| CN1C(C(=O)Nc2ccc(F)c(Cl)c2)CC(C(=O)NCc2ncc(-c3ccccc3)s2)NS1(=O)=O (single isomer, unassigned) [Compound 931-ISOMER-B, N3-(3-chloro-4-fluoro-phenyl)-2-methyl-1,1-dioxo-N5-[(5-phenylthiazol-2-yl)methyl]-1,2,6-thiadiazinane-3,5-dicarboxamide] |  | < 50 |
| CN1C(C(=O)Nc2ccc(F)c(Cl)c2)CC(C(=O)NC(c2ccccc2)c2cnc(-c3ccccc3Cl)s2)NS1(=O)=O (single isomer, unassigned) [1068-ISOMER-A, N3-(3-chloro-4-fluoro-phenyl)-N5-[[2-(2-chlorophenyl)thiazol-5-yl]-phenyl-methyl]-2-methyl-1,1-dioxo-1,2,6-thiadiazinane-3,5-dicarboxamide] | < 50 |  |
| CN1C(C(=O)Nc2ccc(F)c(Cl)c2)CC(C(=O)NCc2cnc(-c3ccccn3)s2)NS1(=O)=O (stereo not drawn) [Compound 1162] | < 50 |  |
| CC(NC(=O)C1CC(C(=O)Nc2ccc(F)c(Cl)c2)N(C)S(=O)(=O)N1)c1ccccn1 (stereo not drawn) [Compound 736] | 50 to 100 |  |
| CN1C(C(=O)Nc2ccc(F)c(Cl)c2)CC(C(=O)NC2CCN(c3ccnc(-c4ccccc4)c3)CC2)NS1(=O)=O (single isomer, unassigned) [1050-ISOMER-A, N3-(3-chloro-4-fluoro-phenyl)-2-methyl-1,1-dioxo-N5-[1-(2-phenyl-4-pyridyl)-4-piperidyl]-1,2,6-thiadiazinane-3,5-dicarboxamide] | 100 to 10000 |  |
| COCCN1C(C(=O)Nc2ccc(F)c(Cl)c2)CC(C(=O)NC2CCN(C(=O)OC)CC2)NS1(=O)=O (single isomer, unassigned) [Compound 896-ISOMER-A, methyl 4-[[5-[(3-chloro-4-fluoro-phenyl)carbamoyl]-6-(2-methoxyethyl)-1,1-dioxo-1,2,6-thiadiazinane-3-carbonyl]amino]piperidine-1-carboxylate] | 50 to 100 |  |
| C[C@@H](NC(=O)C1CC(C(=O)Nc2ccc(F)c(Cl)c2)N(C)S(=O)(=O)N1)c1ccc(F)cc1 (single isomer, unassigned; isomer-a) [493-R-ISOMER-A] |  | < 50 |
| COc1cccc(CNC(=O)C2CC(C(=O)Nc3ccc(F)c(Cl)c3)N(C)S(=O)(=O)N2)c1 (stereo not drawn) [Compound 721] | < 50 |  |
| CN1C(C(=O)Nc2ccc(F)c(Cl)c2)CC(C(=O)Nc2cn(C)cn2)NS1(=O)=O (stereo not drawn) [Compound 494] | 50 to 100 |  |
| COC(=O)N1CCC(NC(=O)C2CC(C(=O)Nc3ccc(F)c(Cl)c3)N(C)S(=O)(=O)N2)CC1 (single isomer, unassigned) [Compound 477-ISOMER-B, methyl 4-[[5-[(3-chloro-4-fluoro-phenyl)carbamoyl]-6-methyl-1,1-dioxo-1,2,6-thiadiazinane-3-carbonyl]amino]piperidine-1-carboxylate] |  | 100 to 10000 |
| CN1C(C(=O)Nc2ccc(F)c(Cl)c2)CC(C(=O)NC2CCN(C(=O)OCCN3CCCCC3)CC2)NS1(=O)=O (stereo not drawn) [Compound 963] | 100 to 10000 |  |
| CN1C(C(=O)Nc2ccc(F)c(Cl)c2)CC(C(=O)NCc2cnc(-c3ccc(OCCN4CCCCC4)cc3)s2)NS1(=O)=O (single isomer, unassigned) [Compound 922-ISOMER-A, N3-(3-chloro-4-fluoro-phenyl)-2-methyl-1,1-dioxo-N5-[[2-[4-[2-(1-piperidyl)ethoxy]phenyl]thiazol-5-yl]methyl]-1,2,6-thiadiazinane-3,5-dicarboxamide] | 100 to 10000 |  |
| Cc1cc(CNC(=O)C2CC(C(=O)Nc3ccc(F)c(Cl)c3)N(C)S(=O)(=O)N2)n(C)n1 (single isomer, unassigned) [Compound 482-ISOMER-B, N3-(3-chloro-4-fluoro-phenyl)-N5-[(2,5-dimethylpyrazol-3-yl)methyl]-2-methyl-1,1-dioxo-1,2,6-thiadiazinane-3,5-dicarboxamide] |  | 100 to 10000 |
| C[C@H](NC(=O)C1CC(C(=O)Nc2ccc(F)c(Cl)c2)N(C)S(=O)(=O)N1)c1ccc(C(F)(F)F)cc1 (single isomer, unassigned) [493-S-ISOMER-A] | < 50 |  |
| Cc1c(CNC(=O)C2CC(C(=O)Nc3ccc(F)c(Cl)c3)N(C)S(=O)(=O)N2)nnn1-c1ccccc1 (stereo not drawn) [Compound 1148] | 100 to 10000 |  |
| CN1C(C(=O)Nc2ccc(F)c(Cl)c2)CC(C(=O)NCc2nc3ccc(O)cc3s2)NS1(=O)=O (stereo not drawn) [Compound 1010] | < 50 |  |
